Data taken from US20250248979A1, “NOVEL GPX4 INHIBITORS AND USES THEREOF” (THE TRUSTEES OF COLUMBIA UNIVERSITY IN THE CITY OF NEW YORK, priority 2022, published 2025).
Like-named read-outs stand apart in the source and are kept apart here.

Legend:
[1] = target: T1, GPX4 (Homo sapiens, UniProt P36969); assay: GPX4 activity assay in cell lysates (NADPH-coupled); format: biochemical; parameters: endogenous in cells; host or cells: A-673 cell lysate
T1 sequence (P36969 1-170 isoform P36969-2): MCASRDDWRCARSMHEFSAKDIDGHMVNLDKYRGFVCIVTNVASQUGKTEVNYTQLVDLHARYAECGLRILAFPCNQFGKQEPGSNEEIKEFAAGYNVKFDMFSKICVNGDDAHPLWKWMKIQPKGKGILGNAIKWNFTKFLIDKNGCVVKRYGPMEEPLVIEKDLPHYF
Procedure, shortened: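 Native GPX4 in lysates of A-673 cells grown with 20 nM sodium selenite; lysate preincubated with compound 45 min at 37 °C in pH 8.0 buffer with 3 mM GSH, 0.5 mM NADPH and glutathione reductase. Reaction started with phosphatidylcholine hydroperoxide; NADPH consumption followed at 340 nm over 25 min; triplicates.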

[2] = tested on: HT-1080 cells; assay: Cellular dose response assay, HT-1080 with and without Fer-1; format: cell-based, human; settings: for Selectivity: ferroptosis selectivity, IC50 with Fer-1 / IC50
Text: HT-1080 (human [Homo sapiens] […] fibrosarcoma), A-673 (human [Homo sapiens] […] Ewing's sarcoma), and SK-HEP-1 (human [Homo sapiens] […] hepatic adenocarcinoma), cells were obtained from ATCC. Huh7 (human [Homo sapiens] […] hepatocellular carcinoma), HLF (human [Homo sapiens] […] hepatocellular carcinoma), HepG2 (human [Homo sapiens] […] hepatocellular carcinoma), cells were obtained from the Cancer Cell Bank at Columbia University Irving Medical Center. HT-1080, A-673, Huh-7, and HLF cells were grown in Dulbecco's Modified Eagle Medium (DMEM) supplemented with 10% heat inactivated fetal bovine serum (HI-FBS), 1% non-essential amino acids, and 1% penicillin streptomycin. HepG2 and SK-HEP-1 cells were grown in Eagle's Minimum Essential Medium (EMEM) supplemented with 10% HI-FBS, and 1% penicillin-streptomycin. All cells were cultured at 37° C. and 5% CO2.
HT-1080, HepG2, Huh7, HLF, and SK-HEP-1 cells were seeded into opaque white 384-well plates at 1500 cells per well then incubated at 37° C. with 5% CO2 overnight. The next day, compounds of interest were dissolved in DMSO and 12-point 2-fold dilution series were prepared with and without Fer-1. Cells were treated in triplicate (final DMSO concentration of 0.4% in all wells, including DMSO-only control wells) and incubated for a further 48 hours at 37° C. and 5% CO2. Cell viability was evaluated using CellTiter-Glo (Promega G7573) and luminescence was recorded on a Victor 5 plate reader. Data were analyzed in GraphPad Prism 9 and error bars represent standard deviation values for three technical replicates in a representative experiment.

[3] = with Fer-1, Table 10, read-out: IC50 (μM) HT1080 + Fer-1
[4] = without Fer-1, Table 10, read-out: IC50 (μM) HT1080

Compound	GPX4% inhibition at 2.5 μM ([1]; 2.5 μM) [%]	Selectivity [2]	IC50 [2, 3] [µM]	further results
CC(C)Oc1ccc(-c2ccc3c(C(=O)NC(C)(C)COC(=O)CCl)nn(C)c3c2)cn1 [QW-720]	76.9 ± 4.2			GPX4 inhibitory activity, result in words [1]: substantially higher GPX4 inhibitory activities than QW-446
Cn1nc(C(=O)NC(C)(C)COC(=O)CCl)c2ccc(-c3ccc(S(=O)(=O)N4CCC4)cc3)cc21 [QW-724]	23.8 ± 3.7			
Cn1nc(C(=O)NC(C)(C)C(C)(C)OC(=O)CCl)c2ccc(-c3ccc(OC(F)(F)F)c(Cl)c3)cc21 [QW-759]	18.4 ± 8.3			
CCOc1ccc(-c2ccc3c(C(=O)NC(C)(C)C(C)(C)OC(=O)CCl)nn(C)c3c2)cc1Cl [QW-765]	12.0 ± 10.7			
Cn1nc(C(=O)NCC(C)(C)OC(=O)CCl)c2ccc(-c3ccc(N4CCOCC4)c(Cl)c3)cc21 [QW-775]	36.2 ± 4.1			
COc1c(Cl)cc(-c2ccc3c(C(=O)NCC(C)(C)OC(=O)CCl)nn(C)c3c2)cc1Cl [QW-778]	30.4 ± 10.0			
Cn1nc(C(=O)NCC(C)(C)OC(=O)CCl)c2ccc(-c3ccc(OC(F)(F)F)c(Cl)c3)cc21 [QW-779]	39.1 ± 17.7			
CCOc1ccc(-c2ccc3c(C(=O)NCC(C)(C)OC(=O)CCl)nn(C)c3c2)cc1Cl [QW-782]	−1.0 ± 32.8			
Cn1nc(C(=O)NC(C)(C)COC(=O)CCl)c2ccc(-c3ccc(C(F)(F)F)c(Cl)c3)cc21 [QW-794]	78.5 ± 10.5			
CC(C)Oc1c(Cl)cc(-c2ccc3c(C(=O)NC(C)(C)C(C)(C)OC(=O)CCl)nn(C)c3c2)cc1Cl [QW-808]	36.3 ± 16.1			
CC(C)Oc1c(Cl)cc(-c2ccc3c(C(=O)NC(C)(C)COC(=O)CCl)nn(C)c3c2)cc1Cl [QW-820]	71.4 ± 6.9			
COc1c(Cl)cc(-c2ccc3c(C(=O)NC(C)(C)COC(=O)CCl)nn(Cc4ccc(Cl)cc4)c3c2)cc1C(F)(F)F [QW-836]				GPX4 inhibition ([1]; 2.5 μM): 50%; GPX4% inhibition at 2.5 μM ([1]; 2.5 μM, 4th generation): 45.7 ± 17.5%
CCOc1ccc(-c2ccc3c(C(=O)NC(C)(C)COC(=O)CCl)nn(Cc4ccc(Cl)cc4)c3c2)cc1Cl [QW-840]				GPX4% inhibition at 2.5 μM ([1]; 2.5 μM, 4th generation): 80.1 ± 11.8%
COc1c(Cl)cc(-c2ccc3c(C(=O)NC(C)(C)COC(=O)CCl)nn(Cc4ccc(Cl)cc4)c3c2)cc1Cl [QW-843]				GPX4% inhibition at 2.5 μM ([1]; 2.5 μM, 4th generation): 76.8 ± 11.4%
CCCOc1ccc(-c2ccc3c(C(=O)NC(C)(C)COC(=O)CCl)nn(Cc4ccc(Cl)cc4)c3c2)cc1Cl [QW-846]				GPX4% inhibition at 2.5 μM ([1]; 2.5 μM, 4th generation): 91.5 ± 3.9%
COc1ccc(-c2ccc3c(C(=O)NC(C)(C)C(C)(C)OC(=O)CCl)nn(Cc4cc(Cl)cc(Cl)c4)c3c2)cc1Cl [QW-886]		4.5	55.3	IC50 [2, 4]: 12.4 µM
CC(C)(NC(=O)c1nn(Cc2cc(Cl)cc(Cl)c2)c2cc(-c3ccc(N4CCOCC4)c(Cl)c3)ccc12)C(C)(C)OC(=O)CCl [QW-887]		>174	> 40	IC50 ([2]; without Fer-1, Table 10, read-out: IC50 HT1080): 0.233 µM
COc1ccc(-c2ccc3c(C(=O)NC(C)(C)COC(=O)CCl)nn(Cc4cccc(C(C)=O)c4)c3c2)cc1Cl [QW-892]		1.6	37.7	IC50 [2, 4]: 23.7 µM
COc1ccc(-c2ccc3c(C(=O)NC(C)(C)COC(=O)CCl)nn(Cc4ccc(Cl)nc4)c3c2)cc1Cl [QW-897]		7.5	9	IC50 [2, 4]: 1.2 µM
CC(C)(COC(=O)CCl)NC(=O)c1nn(Cc2ccc(Cl)nc2)c2cc(-c3ccc(N4CCOCC4)c(Cl)c3)ccc12 [QW-898]		6.8	8.1	IC50 [2, 4]: 1.2 µM
CC(C)(COC(=O)CCl)NC(=O)c1c2ccc(-c3ccc(N4CCOCC4)c(Cl)c3)cc2nn1Cc1ccc(Cl)nc1 [QW-904]		3.8	2.8	ferroptosis selectivity ([2]; HT-1080): 3.8; IC50 [2, 4]: 0.74 µM
CC(=O)c1cccc(Cn2nc3cc(-c4ccc(N5CCOCC5)c(Cl)c4)ccc3c2C(=O)NC(C)(C)COC(=O)CCl)c1 [QW-911]		3.8	5	IC50 [2, 4]: 1.3 µM
CC(C)(COC(=O)CCl)NC(=O)c1c2ccc(Br)cc2nn1Cc1ccc(-c2ccc(N3CCOCC3)c(Cl)c2)cc1 [QW-912]		3.4	5.1	IC50 [2, 4]: 1.5 µM
COc1ccc(-c2ccc3c(C(=O)NC(C)(C)CNC(=O)CCl)nn(Cc4cc(Cl)cc(Cl)c4)c3c2)cc1Cl [QW-927]		5.1	8.2	IC50 [2, 4]: 1.6 µM
CC(C)(CNC(=O)CCl)NC(=O)c1nn(Cc2cc(Cl)cc(Cl)c2)c2cc(-c3ccc(N4CCOCC4)c(Cl)c3)ccc12 [QW-929]		2.9	4.6	IC50 [2, 4]: 1.6 µM
COc1ccc(-c2ccc3c(C(=O)NC(C)(C)COC(=O)CCl)nn(Cc4cc(C(F)(F)F)cc(C(F)(F)F)c4)c3c2)cc1Cl [QW-930]		0.6	13	IC50 [2, 4]: 21.8 µM
CC(C)(COC(=O)CCl)NC(=O)c1nn(Cc2cc(C(F)(F)F)cc(C(F)(F)F)c2)c2cc(-c3ccc(N4CCOCC4)c(Cl)c3)ccc12 [QW-931]		6.6	34.3	IC50 [2, 4]: 5.2 µM
CC(C)(COC(=O)CCl)NC(=O)c1c2ccc(-c3ccc(N4CCOCC4)c(Cl)c3)cc2nn1Cc1cc(Cl)cc(Cl)c1 [QW-937]		2.7	2.7	fold reduced activity relative to QW-852 ([2]; HT1080): 25 fold; IC50 ([2]; read-out: IC50 HT1080): 1 µM

More lines, main results first:

GPX4% inhibition at 2.5 μM ([1]; 2.5 μM) [%]	Compound	Selectivity [2]	IC50 [2, 3] [µM]	further results
−2.2 ± 5.0	COc1ccc(-c2ccc3c(NC(=O)C(C)(C)COC(=O)CCl)nn(C)c3c2)cc1Cl [QW-722]			
−6.6 ± 9.7	COc1c(Cl)cc(-c2ccc3c(-n4cc(CCOC(=O)CCl)nn4)nn(C)c3c2)cc1Cl [QW-752]			
41.6 ± 9.0	Cn1nc(-n2cc(CCOC(=O)CCl)nn2)c2ccc(-c3ccc(N4CCOCC4)c(Cl)c3)cc21 [QW-756]			
14.6 ± 12.4	CC(C)Oc1ncc(-c2ccc3c(-n4cc(C(C)(C)COC(=O)CCl)nn4)nn(C)c3c2)cn1 [QW-760]			
25.4 ± 12.0	Cn1nc(-n2cc(CCOC(=O)CCl)nn2)c2ccc(-c3ccc(OC(F)(F)F)c(Cl)c3)cc21 [QW-764]			
32.6 ± 7.9	COc1ncc(-c2ccc3c(C(=O)NC(C)(C)COC(=O)CCl)nn(C)c3c2)cc1F [QW-768]			
−172.4 ± 10.3	COc1ccc(-c2ccc3c(C(=O)NCC(C)(C)OC(=O)CCl)nn(C)c3c2)cc1Br [QW-783]			
35.1 ± 29.1	Cn1nc(-n2cc(C(C)(C)COC(=O)CCl)nn2)c2ccc(-c3ccc(C(F)(F)F)c(Cl)c3)cc21 [QW-787]			
−53.4 ± 17.0	Cn1nc(-n2cc(C(C)(C)CNC(=O)CCl)nn2)c2ccc(-c3ccc(N4CCOCC4)c(Cl)c3)cc21 [QW-793]			
80.1 ± 4.7	COc1c(F)cc(-c2ccc3c(C(=O)NC(C)(C)COC(=O)CCl)nn(C)c3c2)cc1Cl [QW-802]			
75.3 ± 14.5	COc1c(Cl)cc(-c2ccc3c(-n4cc(C(C)(C)COC(=O)CCl)nn4)nn(C)c3c2)cc1C(F)(F)F [QW-817]			
66.2 ± 5.4	COc1ccc(-c2ccc3c(C(=O)NC(C)(C)COC(=O)CCl)nn(C)c3c2)c(Cl)c1Cl [QW-826]			
68.7 ± 3.6	COc1ccc(-c2ccc3c(-n4cc(C(C)(C)COC(=O)CCl)nn4)nn(C)c3c2)c(Cl)c1Cl [QW-829]			
65.5 ± 5.9	COc1cc(F)c(-c2ccc3c(C(=O)NC(C)(C)COC(=O)CCl)nn(C)c3c2)cc1Cl [QW-830]			
